The values below are quoted from earlier work in PubChem BioAssay AID1259409 (Chemical Carcinogenesis Research Information System (CCRIS), 2018).

The data set concerns rodent chemically induced tumor inhibition, incidence and multiplicity. As to the kind of experiment: CCRIS tumor inhibitor studies. Conditions: Route [Inhibitor]: ORAL, Promoter: NONE USED. From the text:
The CCRIS database contains chemical records with carcinogenicity, mutagenicity, tumor promotion, and tumor inhibition test results. It was developed by the National Cancer Institute (NCI). Data are derived from studies cited in primary journals, current awareness tools, NCI reports, and other sources. Test results have been reviewed by experts in carcinogenesis and mutagenesis.
CCRIS provides historical information from the years 1985 - 2011. It is no longer updated.
This is an archive assay for CCRIS tumor inhibitor studies.

The structures appear in SMILES notation.

`CCNC(=O)/C=C(C)/C=C/C=C(C)/C=C/C1=C(C)CCCC1(C)C`: the “tumour outcome (control, treated, inhibition, significance)” value by setting is: (Carcinogen: 1,2-DIMETHYLHYDRAZINE, 540-73-8, Dose [Inhibitor]: 2 MMOL/KG DIET DAILY STARTING 12 D AFTER CARCINOGEN TREATMENT THROUGH ABOUT 8 MO AFTER CARCINOGEN DOSE (STUDY DURATION:, Species: RAT, Strain/Sex: F344/MALE, Target Tissue: Type of Lesion: COLON: ADENOCARCINOMA, Dose [Carcinogen]: 150 MG/KG BW ONCE) 10/39 (26%), 6/30 (20%), 23%, not significant; (Carcinogen: 1,2-DIMETHYLHYDRAZINE, 540-73-8, Dose [Inhibitor]: 2 MMOL/KG DIET DAILY STARTING 12 D AFTER CARCINOGEN TREATMENT THROUGH ABOUT 8 MO AFTER CARCINOGEN DOSE (STUDY DURATION:, Species: RAT, Strain/Sex: F344/MALE, Target Tissue: Type of Lesion: COLON: ADENOMA, Dose [Carcinogen]: 150 MG/KG BW ONCE) 23/39 (59%), 15/30 (50%), 15%, not significant; (Carcinogen: N-(4-(5-NITRO-2-FURYL)-2-THIAZOLYL)FORMAMIDE, 24554-26-5, Dose [Inhibitor]: 327 MG/KG DIET DAILY FOR 39 WK STARTING ONE WK FOLLOWING THE TERMINATION OF CARCINOGEN ADMINISTRATION (STUDY DURATION: 5, Species: RAT, Strain/Sex: F344/FEMALE, Target Tissue: Type of Lesion: URINARY BLADDER: CARCINOMA, Dose [Carcinogen]: 2 G/KG IN DIET DAILY FOR 10 WK) 105/200 (53%), 63/100 (63%), -19%, p 0.0843; (Carcinogen: N-(4-(5-NITRO-2-FURYL)-2-THIAZOLYL)FORMAMIDE, 24554-26-5, Dose [Inhibitor]: 327 MG/KG DIET DAILY FOR 39 WK STARTING ONE WK FOLLOWING THE TERMINATION OF CARCINOGEN ADMINISTRATION (STUDY DURATION: 5, Species: RAT, Strain/Sex: F344/FEMALE, Target Tissue: Type of Lesion: URINARY BLADDER: PAPILLOMA, Dose [Carcinogen]: 2 G/KG IN DIET DAILY FOR 10 WK) 15/200 (8%), 1/100 (1%), 88%, p 0.0182; (Carcinogen: N-(4-(5-NITRO-2-FURYL)-2-THIAZOLYL)FORMAMIDE, 24554-26-5, Dose [Inhibitor]: 327 MG/KG/D IN DIET FOR 39 WK STARTING 1 WK POST CARCINOGEN DOSE TREATMENT (STUDY DURATION: 50 WK), Species: RAT, Strain/Sex: F344/FEMALE, Target Tissue: Type of Lesion: URINARY BLADDER: PAPILLOMA, Dose [Carcinogen]: 2 G/KG/D IN DIET FOR 10 WK) 15/200 (8%), 1/100 (1%), 87%, p=0.0182; (Carcinogen: N-(4-(5-NITRO-2-FURYL)-2-THIAZOLYL)FORMAMIDE, 24554-26-5, Dose [Inhibitor]: 327 MG/KG/D IN DIET FOR 39 WK STARTING 1 WK POST CARCINOGEN TREATMENT (STUDY DURATION: 50 WK), Species: RAT, Strain/Sex: F344/FEMALE, Target Tissue: Type of Lesion: URINARY BLADDER: CARCINOMA, Dose [Carcinogen]: 2 G/KG/D IN DIET FOR 10 WK) 105/200 (53%), 63/100 (63%), -19%, p=0.0843. Moreover, the “tumour outcome (control, treated, inhibition, significance)” value (Carcinogen: N-(4-(5-NITRO-2-FURYL)-2-THIAZOLYL)FORMAMIDE, 24554-26-5, Dose [Inhibitor]: 654 MG/KG DIET DAILY FOR 39 WK STARTING ONE WK FOLLOWING THE TERMINATION OF CARCINOGEN ADMINISTRATION (STUDY DURATION: 5, Species: RAT, Strain/Sex: F344/FEMALE, Target Tissue: Type of Lesion: URINARY BLADDER: CARCINOMA, Dose [Carcinogen]: 2 G/KG IN DIET DAILY FOR 10 WK) is recorded as 105/200 (53%), 78/100 (78%), -47%, p 0.00002; the “tumour outcome (control, treated, inhibition, significance)” value (Carcinogen: N-(4-(5-NITRO-2-FURYL)-2-THIAZOLYL)FORMAMIDE, 24554-26-5, Dose [Inhibitor]: 654 MG/KG DIET DAILY FOR 39 WK STARTING ONE WK FOLLOWING THE TERMINATION OF CARCINOGEN ADMINISTRATION (STUDY DURATION: 5, Species: RAT, Strain/Sex: F344/FEMALE, Target Tissue: Type of Lesion: URINARY BLADDER: PAPILLOMA, Dose [Carcinogen]: 2 G/KG IN DIET DAILY FOR 10 WK) is on record as 15/200 (8%), 12/100 (12%), -50%, p 0.1989; the “tumour outcome (control, treated, inhibition, significance)” value (Carcinogen: N-(4-(5-NITRO-2-FURYL)-2-THIAZOLYL)FORMAMIDE, 24554-26-5, Dose [Inhibitor]: 654 MG/KG IN DIET FOR 39 WK STARTING 1 WK POST CARCINOGEN TREATMENT (STUDY DURATION: 50 WK), Species: RAT, Strain/Sex: F344/FEMALE, Target Tissue: Type of Lesion: URINARY BLADDER: PAPILLOMA, Dose [Carcinogen]: 2 G/KG/D IN DIET FOR 10 WK) is reported as 15/200 (7.5%), 12/100 (12%), -60%, p=0.1989; the “tumour outcome (control, treated, inhibition, significance)” value (Carcinogen: N-(4-(5-NITRO-2-FURYL)-2-THIAZOLYL)FORMAMIDE, 24554-26-5, Dose [Inhibitor]: 654 MG/KG/D IN DIET FOR 39 WK STARTING 1 WK POST CARCINOGEN TREATMENT (STUDY DURATION: 50 WK), Species: RAT, Strain/Sex: F344/FEMALE, Target Tissue: Type of Lesion: URINARY BLADDER: CARCINOMA, Dose [Carcinogen]: 2 G/KG/D IN DIET FOR 10 WK) is given as 105/200 (53%), 78/100 (78%), -47%, p=0.00002; the “tumour outcome (control, treated, inhibition, significance)” value (Carcinogen: N-BUTYL-N-(4-HYDROXYBUTYL)NITROSAMINE, 3817-11-6, Dose [Inhibitor]: 0.5 MMOL/KG DIET DAILY FOR 16 WK STARTING 7 D AFTER FINAL CARCINOGEN DOSE (STUDY DURATION: 6 MO), Species: MOUSE, Strain/Sex: B6D2F1/MALE, Target Tissue: Type of Lesion: URINARY BLADDER: CARCINOMA, Dose [Carcinogen]: 5 OR 10 MG 2/WK FOR 9 WK) was 36/97 (37%), 25/76 (33%), 11%, not significant; the “tumour outcome (control, treated, inhibition, significance)” value (Carcinogen: N-BUTYL-N-(4-HYDROXYBUTYL)NITROSAMINE, 3817-11-6, Dose [Inhibitor]: 1 MMOL/KG DIET DAILY FOR 16 WK STARTING 7 D AFTER FINAL CARCINOGEN DOSE (STUDY DURATION: 6 MO), Species: MOUSE, Strain/Sex: B6D2F1/MALE, Target Tissue: Type of Lesion: URINARY BLADDER: CARCINOMA, Dose [Carcinogen]: 5 OR 10 MG 2/WK FOR 9 WK) was 36/97 (37%), 16/75 (21%), 43%, p<0.025. Also, the “tumour outcome (control, treated, inhibition, significance)” value runs as follows: (Carcinogen: N-BUTYL-N-(4-HYDROXYBUTYL)NITROSAMINE, 3817-11-6, Dose [Inhibitor]: 1.5 MMOL/KG DIET DAILY FOR 153 D STARTING ONE WK AFTER THE FINAL CARCINOGEN DOSE (STUDY DURATION: 210 D), Species: MOUSE, Strain/Sex: BDF1/MALE, Target Tissue: Type of Lesion: URINARY BLADDER: TRANSITIONAL CELL CARCINOMA, Dose [Carcinogen]: 7.5 MG 1/WK FOR 8 WK) 35/99 (35%), 21/99 (21%), 40%, p<0.05; (Carcinogen: N-BUTYL-N-(4-HYDROXYBUTYL)NITROSAMINE, 3817-11-6, Dose [Inhibitor]: 1.5 MMOL/KG IN DIET FOR 153 D STARTING 1 WK AFTER LAST CARCINOGEN DOSE (STUDY DURATION: 210 D), Species: MOUSE, Strain/Sex: DBF1/MALE, Target Tissue: Type of Lesion: URINARY BLADDER: TRANSITIONAL CELL CARCINOMA, Dose [Carcinogen]: 7.5 MG 1/WK FOR 8 WK) 35/99 (35%), 21/99 (21%), 40%, p<0.05; (Carcinogen: N-BUTYL-N-(4-HYDROXYBUTYL)NITROSAMINE, 3817-11-6, Dose [Inhibitor]: 2 MMOL/KG DIET DAILY FOR 17 WK STARTING 7 D AFTER FINAL CARCINOGEN DOSE (STUDY DURATION: 6 MO), Species: RAT, Strain/Sex: F344/MALE, Target Tissue: Type of Lesion: URINARY BLADDER: TRANSITIONAL CELL CARCINOMA, Dose [Carcinogen]: 200 MG 2/WK FOR 8 WK) 55/60 (92%), 25/30 (83%), 10%, not significant; (Carcinogen: N-BUTYL-N-(4-HYDROXYBUTYL)NITROSAMINE, 3817-11-6, Dose [Inhibitor]: 2 MMOL/KG DIET DAILY FOR 19 WK STARTING 7 D AFTER FINAL CARCINOGEN DOSE (STUDY DURATION: 6 MO), Species: RAT, Strain/Sex: F344/FEMALE, Target Tissue: Type of Lesion: URINARY BLADDER: TRANSITIONAL CELL CARCINOMA, Dose [Carcinogen]: 150 MG 2/WK FOR 6 WK) 28/80 (35%), 5/40 (12%), 66%, p<0.01; (Carcinogen: N-METHYL-N-NITROSOUREA, 684-93-5, Dose [Inhibitor]: 2 MMOL/KG DIET DAILY STARTING 12 D AFTER CARCINOGEN TREATMENT THROUGH ABOUT 8 MO AFTER CARCINOGEN DOSE (STUDY DURATION:, Species: RAT, Strain/Sex: F344/MALE, Target Tissue: Type of Lesion: COLON: ADENOCARCINOMA, Dose [Carcinogen]: 2.5 MG 1/WK FOR 2 WK) 5/39 (13%), 9/30 (30%), -131%, not significant.
